In general, IC50 refers to the midpoint of a concentration-inhibition curve.

Assay [1] concerns the target PKG (Plasmodium falciparum, UniProt Q8I719). The experiment in a line: PKG IC50 (supplementary data file). It is filed as biochemical. The source says:
Supplement pone.0149996.s003.xls, sheet "combined_1_sorted"

Assay [2] addresses T1, Plasmodium falciparum calcium-dependent protein kinase 4 (CDPK4) (Plasmodium falciparum, UniProt Q8IBS5).
T1 construct: 6-Histidine (N); made in house
T1 sequence (Q8IBS5 1-528): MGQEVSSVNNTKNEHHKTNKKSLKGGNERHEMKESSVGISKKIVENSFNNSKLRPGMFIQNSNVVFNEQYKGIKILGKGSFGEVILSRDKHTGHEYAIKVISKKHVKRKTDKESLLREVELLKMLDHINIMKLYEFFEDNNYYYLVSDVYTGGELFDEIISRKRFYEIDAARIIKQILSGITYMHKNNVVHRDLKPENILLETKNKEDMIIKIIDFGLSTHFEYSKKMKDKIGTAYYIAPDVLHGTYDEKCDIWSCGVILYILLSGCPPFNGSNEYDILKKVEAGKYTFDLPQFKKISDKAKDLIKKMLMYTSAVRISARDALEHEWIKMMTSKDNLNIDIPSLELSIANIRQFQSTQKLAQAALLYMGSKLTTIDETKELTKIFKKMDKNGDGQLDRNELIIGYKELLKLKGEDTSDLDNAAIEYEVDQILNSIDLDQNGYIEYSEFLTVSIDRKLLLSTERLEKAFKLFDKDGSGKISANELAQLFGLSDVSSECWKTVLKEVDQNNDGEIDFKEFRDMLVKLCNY
The experiment in a line: CDPK4 Kinase-Glo ATP-consumption screen and dose-response. It is filed as biochemical. The note with it: hits below 1 uM. As to the method: Biochemical assays were performed in white 384-well plates (Nunc). Liquid transfers were done manually with 8-channel pipets. Compounds were initially tested in a single-point screen (final concentration 1 μM). […] The catalytic activity of each kinase was considered proportional to ATP consumed, as determined from measurements of residual [ATP] with the luciferase-based reagent Kinase-Glo (Promega) following incubation. Luminescence (proportional to residual [ATP]) was measured on the plate readers FLx800 (BioTek Instruments, Winooski, VT, USA) and MicroBeta^2 (PerkinElmer, Waltham, MA, USA). Incubation times were chosen to ensure near-complete ATP depletion in the absence of inhibition, thus maximizing the difference in signal between inhibited and uninhibited wells.
40 μM Syntide-2 was used as a substrate; BKI-1 [14] was used as a control inhibitor, while reaction mixtures lacking Syntide-2 were included as an additional negative control. Incubation time was 90 minutes. Reactions were terminated by adding excess EGTA (5 mM), which sequesters Ca^2+ and halts calcium-dependent kinase activity.
(In general: In Kinase-Glo more light means more ATP remaining.)

Assay [3] concerns DD2. Details: method as in F.J. Gamo et al., Nature 2010. Conditions: downloaded from ChEMBL, ref F.J. Gamo et al., Nature 2010; cited from earlier work.
In assay [4] the target is T2, Plasmodium falciparum protein kinase 6 (PK6) (Plasmodium falciparum, UniProt Q8IDW1).
T2 construct: 6-Histidine (N); made in house
T2 sequence (Q8IDW1 1-305): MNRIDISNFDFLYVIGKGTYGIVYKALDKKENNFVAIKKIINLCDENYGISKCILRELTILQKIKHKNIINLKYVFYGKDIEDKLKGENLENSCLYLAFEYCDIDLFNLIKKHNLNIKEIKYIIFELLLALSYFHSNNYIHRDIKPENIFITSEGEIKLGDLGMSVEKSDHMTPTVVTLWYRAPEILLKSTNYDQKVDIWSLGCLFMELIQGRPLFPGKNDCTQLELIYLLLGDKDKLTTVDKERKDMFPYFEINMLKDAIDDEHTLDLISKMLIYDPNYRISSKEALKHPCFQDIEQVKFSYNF
The experiment in a line: biochemical. The note with it: hits below 1 uM; read-out: PK6 IC50.

In assay [5] the test system is 3D7 PFLDH. Details: method as in F.J. Gamo et al., Nature 2010; concentration or dose not given beside the values. The note with it: downloaded from ChEMBL, ref F.J. Gamo et al., Nature 2010; cited from earlier work.
Assay [6] concerns HepG2 cells. Conditions: cited from earlier work.
Assay [7] addresses T3, Plasmodium falciparum calcium-dependent protein kinase 1 (CDPK1) (Plasmodium falciparum, UniProt P62344).
T3 construct: 6-Histidine (N); made in house
The experiment in a line: CDPK1 Kinase-Glo ATP-consumption screen and dose-response. In kind it is biochemical. The note with it: hits below 1 uM; read-out: CDPK1 IC50. An outline of the steps: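 Single-point testing used 1 μM final compound, then dose-response, against CDPK4 and CDPK1 with Syntide-2 (40 μM) as substrate. After 90 min, reactions were halted by 5 mM EGTA, and kinase activity was inferred from depleted ATP via Kinase-Glo luminescence.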

Assay [8] has as its system P. falciparum 3D7 cells. The note with it: 3D7, cited from earlier work.
For assay [9], the system named is 3D7 PFLDH. Also on record: method as in downloaded from ChEMBL. The note with it: ref downloaded from ChEMBL; cited from earlier work.
The subject of assay [10] is DD2. Also on record: method as in downloaded from ChEMBL. Conditions: ref downloaded from ChEMBL; cited from earlier work.
The mark [11] stands for this setting: downloaded from ChEMBL, ref F.J. Gamo et al., Nature 2010.
The mark [12] stands for this setting: HEPG2, ref downloaded from ChEMBL.

Where two headings read alike, the source gives them in different places.

PKG, sequence (Q8I719 whole entry): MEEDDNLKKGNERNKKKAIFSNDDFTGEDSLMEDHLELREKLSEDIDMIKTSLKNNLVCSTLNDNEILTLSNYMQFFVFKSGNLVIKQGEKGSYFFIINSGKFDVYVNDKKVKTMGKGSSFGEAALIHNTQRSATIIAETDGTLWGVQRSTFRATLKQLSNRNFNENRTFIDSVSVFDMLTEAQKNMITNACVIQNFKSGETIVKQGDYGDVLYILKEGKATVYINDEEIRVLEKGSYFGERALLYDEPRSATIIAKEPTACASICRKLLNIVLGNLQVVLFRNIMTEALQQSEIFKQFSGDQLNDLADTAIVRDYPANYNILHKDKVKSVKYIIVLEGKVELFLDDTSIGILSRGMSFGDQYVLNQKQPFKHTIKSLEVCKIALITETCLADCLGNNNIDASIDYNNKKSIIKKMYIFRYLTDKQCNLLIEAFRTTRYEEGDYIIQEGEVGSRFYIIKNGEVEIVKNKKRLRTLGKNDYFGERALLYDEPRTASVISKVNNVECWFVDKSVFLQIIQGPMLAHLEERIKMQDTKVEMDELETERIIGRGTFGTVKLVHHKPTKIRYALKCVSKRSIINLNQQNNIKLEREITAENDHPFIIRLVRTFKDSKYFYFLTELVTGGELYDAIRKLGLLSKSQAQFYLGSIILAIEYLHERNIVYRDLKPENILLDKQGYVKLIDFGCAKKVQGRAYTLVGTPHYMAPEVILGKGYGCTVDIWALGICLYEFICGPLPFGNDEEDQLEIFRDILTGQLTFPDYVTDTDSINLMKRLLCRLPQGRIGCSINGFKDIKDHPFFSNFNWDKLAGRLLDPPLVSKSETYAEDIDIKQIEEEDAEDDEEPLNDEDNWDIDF
T3 sequence (P62344 whole entry): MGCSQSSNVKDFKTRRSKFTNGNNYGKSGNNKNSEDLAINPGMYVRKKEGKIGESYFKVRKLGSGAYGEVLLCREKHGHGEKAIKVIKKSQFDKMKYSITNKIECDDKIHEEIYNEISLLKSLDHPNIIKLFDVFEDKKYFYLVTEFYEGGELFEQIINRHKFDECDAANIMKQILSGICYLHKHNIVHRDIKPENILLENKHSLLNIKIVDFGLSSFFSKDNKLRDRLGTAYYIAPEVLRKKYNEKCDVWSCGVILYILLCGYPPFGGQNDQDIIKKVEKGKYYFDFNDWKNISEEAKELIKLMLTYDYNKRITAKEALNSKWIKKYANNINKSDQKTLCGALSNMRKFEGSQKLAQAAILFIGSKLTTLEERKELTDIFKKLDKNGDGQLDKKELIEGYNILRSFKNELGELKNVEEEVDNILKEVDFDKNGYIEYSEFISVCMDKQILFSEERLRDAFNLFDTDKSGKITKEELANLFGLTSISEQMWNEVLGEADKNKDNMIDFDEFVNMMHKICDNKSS

As to `CNC(=O)c1ccccc1Nc1nc(Nc2ccc(CCN3CCN(C)CC3)cc2)ncc1Cl.Cl` [TCMDC-133800], the IC50 in [1] stood at 881 nM; in assay [2], 361 nM; in assay [4] it was 70 nM; in assay [7], 47 nM. Also, the PCT_INHB_DD2 in assay [3] is 98%. For the same compound, the PCT_INHIB_3D7_PFLDH in assay [5] was 5%. For the same compound, the PCT_INHIB_HEPG2 in [6] (HepG2, downloaded from ChEMBL, ref F.J. Gamo et al., Nature 2010) is reported as 76%. Also, the PCT_IHB_3D7 in assay [8] (setting [11]) was 97%. Besides, the pXC50_3D7 in assay [8] (setting [11]) is 6.1864.

For the compound `Cl.NC[C@H](CC1CCCCC1)NC(=O)c1ccc(-c2ccnc3[nH]ccc23)s1` [TCMDC-134150], the PCT_INHIB_3D7_PFLDH in assay [9] is recorded as 5. In addition, the IC50 came out at 1020 nM in assay [1], 527 nM in [2] and 492 nM in assay [7]. In assay [10], the PCT_INHB_DD2 is reported as 4. The PCT_INHIB_HEPG2 in assay [6] (setting [12]) is reported as 39. Besides, the PCT_IHB_3D7 in assay [8] (ref downloaded from ChEMBL) is given as 98. Besides, the pXC50_3D7 in assay [8] (ref downloaded from ChEMBL) is 6.022.

As for `NCC(NC(=O)c1ccc(-c2c[nH]c3ncccc23)s1)c1ccccc1.O=CO` (centres unmarked) [TCMDC-134154], the PCT_INHIB_3D7_PFLDH in [9] is recorded as 0. In addition, the IC50 in [1] amounted to 430 nM; in [2], 473 nM; in [7] it was 29 nM. For the same compound, the PCT_INHB_DD2 in [10] is on record as 87. In addition, the PCT_INHIB_HEPG2 in assay [6] (setting [12]) was 52. For the same compound, the PCT_IHB_3D7 in [8] (ref downloaded from ChEMBL) is given as 95. Besides, the pXC50_3D7 in assay [8] (ref downloaded from ChEMBL) is 6.262.

For `CC(c1cccc(Nc2nccc(-c3c(-c4cccc(NC(=O)c5c(F)cccc5F)c4)nn4ccccc34)n2)c1)S(C)(=O)=O` (centres unmarked) [TCMDC-135670], the PCT_INHIB_3D7_PFLDH in [9] was 0. Further, the results for the IC50 in assay [1], in assay [2] and in assay [7] were more than 10000 nM, 90 nM and 21 nM, respectively. For the same compound, in assay [10], the PCT_INHB_DD2 was 99. Further, in assay [6] (setting [12]), the PCT_INHIB_HEPG2 is on record as 76. Besides, the PCT_IHB_3D7 in assay [8] (ref downloaded from ChEMBL) was 98. Besides, the pXC50_3D7 in assay [8] (ref downloaded from ChEMBL) was 7.241.

In the case of `O=C(Nc1c(F)cccc1F)c1cccc(-c2nn3ccccc3c2-c2ccnc(Nc3cccc(-c4cnco4)c3)n2)c1` [TCMDC-135743], in assay [9], the PCT_INHIB_3D7_PFLDH is given as 0. For the same compound, the IC50 is more than 10000 nM in [1], 134 nM in [2] and 40 nM in assay [7]. Besides, in [10], the PCT_INHB_DD2 is on record as 94. Moreover, the PCT_INHIB_HEPG2 in assay [6] (setting [12]) was 96. Also, in [8] (ref downloaded from ChEMBL), the PCT_IHB_3D7 is 95. The pXC50_3D7 in assay [8] (ref downloaded from ChEMBL) is given as 6.443.

As for `NS(=O)(=O)c1cccc(Nc2nccc(-c3c(-c4cccc(NC(=O)c5c(F)cccc5F)c4)nn4ccccc34)n2)c1` [TCMDC-135780], the PCT_INHIB_3D7_PFLDH in [9] was 2. Further, the concentration for half-maximal inhibition (IC50) in assay [1] is more than 10000 nM; in assay [2], 51 nM; in assay [7], 20 nM. For the same compound, in [10], the PCT_INHB_DD2 is listed as 97. Besides, in assay [6] (setting [12]), the PCT_INHIB_HEPG2 is listed as 81. Moreover, the PCT_IHB_3D7 in [8] (ref downloaded from ChEMBL) is on record as 98. The pXC50_3D7 in assay [8] (ref downloaded from ChEMBL) was 7.1329.

Turning to `NS(=O)(=O)CCc1cccc(Nc2nccc(-c3c(-c4cccc(NC(=O)c5c(F)cccc5F)c4)nn4ccccc34)n2)c1` [TCMDC-135791], in [9], the PCT_INHIB_3D7_PFLDH is given as 3. For the same compound, the IC50 in [1] was more than 10000 nM; in [2], 29 nM; in [7] it was 20 nM. For the same compound, the PCT_INHB_DD2 in [10] was 97. In addition, the PCT_INHIB_HEPG2 in [6] (setting [12]) is on record as 84. The PCT_IHB_3D7 in assay [8] (ref downloaded from ChEMBL) was 98. Moreover, the pXC50_3D7 in [8] (ref downloaded from ChEMBL) was 7.234.

Turning to `CN1CCN(c2ccc(Nc3nccc(-c4c(-c5cccc(NC(=O)c6c(F)cccc6F)c5)nn5ccccc45)n3)cc2)CC1` [TCMDC-135818], in assay [9], the PCT_INHIB_3D7_PFLDH is recorded as 0. Besides, the IC50 in [1] came to 115 nM; in assay [2] it was 75 nM; in assay [7] it was 35 nM. Also, the PCT_INHB_DD2 in assay [10] is 98. In [6] (setting [12]), the PCT_INHIB_HEPG2 was 86. In assay [8] (ref downloaded from ChEMBL), the PCT_IHB_3D7 is recorded as 98. The pXC50_3D7 in assay [8] (ref downloaded from ChEMBL) is recorded as 6.95.

These data come from article PMC4774911, “Biochemical Screening of Five Protein Kinases from Plasmodium falciparum against 14,000 Cell-Active Compounds” (PLoS ONE, 2016).
